Results on 49 compounds are retold here after patent publication US8586751B2, “Nicotinamide compounds useful as kinase modulators” (Bristol-Myers Squibb Company, priority 2009, dated 2013).

Test [1] concerns the target T1, human recombinant Btk (Homo sapiens, UniProt Q06187).
T1 construct: purchased Invitrogen Corporation
In words: Human Recombinant Btk Enzyme Assay (LLE_BTK). Format: biochemical. On the procedure: Human Recombinant Btk Enzyme Assay
To V-bottom 384-well plates were added test compounds, human recombinant Btk (1 nM, Invitrogen Corporation), fluoresceinated peptide (1.5 μM), ATP (20 μM), and assay buffer (20 mM HEPES pH 7.4, 10 mM MgCl2, 0.015% Brij35 and 4 mM DTT in 1.6% DMSO), with a final volume of 30 μL. After incubating at room temperature for 60 min, the reaction was terminated by adding 45 μl of 35 mM EDTA to each sample. The reaction mixture was analyzed on the Caliper LABCHIP® 3000 (Caliper, Hopkinton, Mass.) by electrophoretic separation of the fluorescent substrate and phosphorylated product. Inhibition data were calculated by comparison to no enzyme control reactions for 100% inhibition and no inhibitor controls for 0% inhibition. Dose response curves were generated to determine the concentration required inhibiting 50% of kinase activity (IC50). Compounds were dissolved at 10 mM in dimethylsulfoxide (DMSO) and evaluated at eleven concentrations.
Using this assay, the following IC50 values derived by non-linear regression analysis were determined and compared to those values of certain compounds in U.S. Publication No. 2007/078136 and U.S. Publication No. 2008/045536.

In test [2] the test system is Ramos B cells with beta-lactamase reporter gene under control of an NFAT response element. In words: NFAT-bla RA1 Reporter Assay (Ramos-NFAT). Format: cell-based, human. Particulars: Homo sapiens, Ramos, read-out: IMM Ramos-NFAT (IC50). The protocol: NFAT-bla RA1 Reporter Assay
Ramos B cells containing a stable integration of a beta-lactamase reporter gene under the control of an NFAT response element (NFAT-bla RA1, Invitrogen, K1434) at a density of 100×10^3 cells/well were incubated with test compounds at 37° C. for 30 min prior to stimulation with F(ab′)2 anti-human IgM (Jackson ImmunoResearch, 109-006-129) at 2.5 μg/ml for 4.5 hrs at 37° C. After stimulation, LiveBLAzer-FRET B/G substrate (CCF2/AM, or CCF4/AM, Invitrogen) was added to each well and incubated for 90 min at room temperature in the dark. Assay plates were read on an LJL Analyst, with raw emission values subtracted from a media-only blank containing substrate in assay media (no cells). The ratios of 460 nm/530 nm emission (405 nm excitation) were used to calculate the amount of stimulation.

T1 sequence (Q06187 whole entry): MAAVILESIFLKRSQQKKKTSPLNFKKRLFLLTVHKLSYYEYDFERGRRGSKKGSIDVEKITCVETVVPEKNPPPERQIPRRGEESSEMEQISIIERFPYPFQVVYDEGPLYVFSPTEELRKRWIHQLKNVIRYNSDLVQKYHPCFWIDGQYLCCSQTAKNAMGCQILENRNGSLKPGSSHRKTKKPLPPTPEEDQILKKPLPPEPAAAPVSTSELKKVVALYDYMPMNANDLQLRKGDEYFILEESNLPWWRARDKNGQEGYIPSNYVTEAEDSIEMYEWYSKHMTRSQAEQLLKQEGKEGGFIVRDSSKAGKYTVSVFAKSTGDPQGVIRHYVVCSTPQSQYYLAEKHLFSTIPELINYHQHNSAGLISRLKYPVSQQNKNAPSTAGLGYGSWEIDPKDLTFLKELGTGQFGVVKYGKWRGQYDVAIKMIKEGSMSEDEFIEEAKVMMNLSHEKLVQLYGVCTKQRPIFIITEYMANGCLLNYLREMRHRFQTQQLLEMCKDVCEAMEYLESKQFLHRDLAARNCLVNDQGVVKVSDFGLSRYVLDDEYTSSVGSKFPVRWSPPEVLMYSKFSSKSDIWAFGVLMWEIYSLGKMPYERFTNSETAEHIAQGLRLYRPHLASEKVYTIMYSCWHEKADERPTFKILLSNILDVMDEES

On to `NC(=O)c1ccc(N2CCNCC2)nc1Nc1ccc(C(=O)N2CCOCC2)cc1` [Example 10, 2-(4-(Morpholine-4-carbonyl)phenylamino)-6-(piperazin-1-yl)nicotinamide], for which the IC50 in test [1] was 1800 nM.

`Cc1csc(NC(=O)N[C@@H]2CCCN(c3ccc(C(N)=O)c(Nc4ccc(N5CCN(C)CC5)cc4)n3)C2)n1` [Example 12, (R)-2-(4-(4-Methylpiperazin-1-yl)phenylamino)-6-(3-(3-(4-methylthiazol-2-yl)ureido)piperidin-1-yl)nicotinamide]: the concentration for half-maximal inhibition (IC50) in test [2] came to 40 nM; in test [1] it was 7 nM. Take `NC(=O)c1cc(F)c(N2CCCCC2)nc1Nc1ccc(F)cc1` [Example 15, 5-Fluoro-2-(4-fluorophenylamino)-6-(piperidin-1-yl)nicotinamide]: the IC50 in test [1] is 870 nM. With `CS(=O)(=O)c1ccc(Nc2nc(N3CCCC4(CC(c5ccccc5)=NO4)C3)ccc2C(N)=O)cc1` (centres unmarked) [Example 29, 2-((4-(Methylsulfonyl)phenyl)amino)-6-(3-phenyl-1-oxa-2,7-diazaspiro[4.5]dec-2-en-7-yl)nicotinamide], the IC50 in test [2] was 160 nM; in test [1], 1 nM. `CC(C)(C)c1ccc(C(=O)Nc2cccc(-c3ccc(C(N)=O)c(Nc4ccc(C(=O)N5CCOCC5)cc4)n3)c2)cc1` [Example 37]: the IC50 in test [1] was 1400 nM. For `CC(C)(C)OC(=O)N[C@@H]1CCN(c2ccc(C(N)=O)c(Nc3ccc(C(=O)N4CCOCC4)cc3)n2)C1` [Example 44], in test [1], the IC50 was found to be 750 nM. Same read-out and setting: to `NC(=O)c1ccc(N2CC[C@@H](N)C2)nc1Nc1ccc(C(=O)N2CCOCC2)cc1` [Example 45] belongs 2100 nM; to `NC(=O)c1ccc(N2CC[C@@H](NC(=O)c3ccc(C(F)(F)F)cc3)C2)nc1Nc1ccc(C(=O)N2CCOCC2)cc1` [Example 50], 740 nM; to `CC(=O)c1ccccc1-c1ccc(C(N)=O)c(Nc2ccc(C(=O)N3CCOCC3)cc2)n1` [Example 132], 1000 nM. For `NC(=O)c1ccc(-c2ccc(Cl)c(C(F)(F)F)c2)nc1Nc1ccc(C(=O)N2CCOCC2)cc1` [Example 143], the IC50 in test [1] is 1200 nM. With `Cc1ccc(NC(=O)c2ccc(C(C)(C)C)cc2)cc1-c1ccc(C(N)=O)c(Nc2ccc(C(=O)N3CCOCC3)cc2)n1` [Example 162], the concentration for half-maximal inhibition (IC50) in test [1] came to 1400 nM. Still for that read-out and setting: to `CC(C)(C)c1ccc(NC(=O)[C@@H]2CCN(c3ccc(C(N)=O)c(Nc4ccc(C(=O)N5CCOCC5)cc4)n3)C2)cc1` [Example 163] belongs 1500 nM. Same read-out and setting: to `CC(C)(C)c1ccc(NC(=O)[C@@H]2CCCN(c3ccc(C(N)=O)c(Nc4ccc(C(=O)N5CCOCC5)cc4)n3)C2)cc1` [Example 164] belongs 2700 nM; to `NC(=O)c1ccc(N2CCC[C@@H](C(=O)O)C2)nc1Nc1ccc(C(=O)N2CCOCC2)cc1` [Example 165], 2900 nM. Turning to `NC(=O)c1ccc(N2CCC[C@@H](NC(=O)c3cccc(-c4nc5ccccc5[nH]4)c3)C2)nc1Nc1ccc(C(=O)N2CCOCC2)cc1` [Example 263], the figures for the IC50 in test [2] and in test [1] were 5700 nM and 0.9 nM, respectively. For the compound `Cc1ccc(NC(=O)N[C@@H]2CCCN(c3ccc(C(N)=O)c(Nc4ccc(N5CCN(C)CC5)cc4)n3)C2)cc1C` [Example 283], the results for the IC50 in test [2] and in test [1] were 120 nM and 10 nM, respectively. Regarding `CN1CCN(c2ccc(Nc3nc(N4CCC[C@@H](NC(=O)Nc5nccs5)C4)ccc3C(N)=O)cc2)CC1` [Example 284], the IC50 amounted to 60 nM in test [2] and 7 nM in test [1]. Regarding `CC(C)(C)OC(=O)N[C@@H]1CCCN(c2ccc(C(N)=O)c(Nc3ccccc3)n2)C1` [Example 295], the IC50 in test [1] was 1700 nM. `NC(=O)c1ccc(NCc2ccccc2)nc1Nc1ccccc1` [Example 298]: the IC50 in test [1] came out at 12000 nM. Regarding `NC(=O)c1ccc(N2CCC[C@@H](N)C2)nc1Nc1ccccc1` [Example 299], the IC50 in test [1] was found to be 1500 nM. As for `Cc1ccc(NC(=O)N[C@@H]2CCCN(c3ccc(C(N)=O)c(Nc4ccccc4)n3)C2)cc1C` [Example 300], the half-inhibitory concentration (IC50) in test [1] is 1300 nM. Take `N#Cc1ccc(Nc2nc(N3CCC[C@@H](N)C3)ccc2C(N)=O)cc1` [Example 302]: the IC50 in test [1] is 880 nM. As to `CC(C)(C)OC(=O)c1ccc(Nc2nc(N3CCCCC3)ccc2C(N)=O)cc1` [Example 314], the IC50 in test [1] is 1800 nM. With `NC(=O)c1ccc(N2CCCCC2)nc1Nc1ccc(C(=O)Nc2ccccc2)cc1` [Example 323], the IC50 in test [1] was 780 nM. Consider `COc1cccc(Nc2nc(N3CCC[C@@H](NC(=O)Nc4nc(C)cs4)C3)ccc2C(N)=O)c1` [Example 331], for which, in test [1], the IC50 is 780 nM. Consider `Cc1csc(NC(=O)N[C@@H]2CCCN(c3ccc(C(N)=O)c(Nc4ccc(N5CCOCC5)cc4)n3)C2)n1` [Example 337], for which the IC50 in test [1] came to 760 nM. For `NC(=O)c1ccc(-c2cccc3c2CCNC3)nc1Nc1ccc(-c2cnco2)cc1` [Example 345], the IC50 in test [2] was 920 nM; in test [1], 900 nM. `NC(=O)c1ccc(-c2cccc3c2CCN(C(=O)c2ccccc2)C3)nc1Nc1ccc(-c2cnco2)cc1` [Example 346]: the IC50 in test [2] is 10000 nM; in test [1], 2900 nM. As to `CC(=O)N1CCc2c(cccc2-c2ccc(C(N)=O)c(Nc3ccc(-c4cnco4)cc3)n2)C1` [Example 347], the figures for the IC50 in test [2] and in test [1] were 10000 nM and 2000 nM, respectively. In the case of `CCN1CCN(c2ccc(Nc3nc(N4CCC[C@@H](NC(=O)c5ccccc5)C4)ccc3C(N)=O)cc2)CC1` [Example 354], the IC50 in test [2] worked out at 100 nM; in test [1], 4 nM. For `CC(C)N1CCN(c2ccc(Nc3nc(N4CCC[C@@H](NC(=O)c5ccccc5)C4)ccc3C(N)=O)cc2)CC1` [Example 357], in that order: 100 nM and 4 nM. Turning to `CC(=O)N1CCN(c2ccc(Nc3nc(N4CCC[C@@H](NC(=O)Nc5ccc(C)c(C)c5)C4)ccc3C(N)=O)cc2)CC1` [Example 361], the IC50 in test [2] worked out at 100 nM; in test [1], 9 nM. As to `CS(=O)(=O)Nc1cccc(Nc2nc(-c3ccc(Cl)cc3)ccc2C(N)=O)c1` [Example 375], the IC50 in test [1] was 1200 nM. On the same count and under the same terms, to `CN(c1cccc(Nc2nc(-c3ccc(Cl)cc3)ccc2C(N)=O)c1)S(=O)(=O)Cc1ccccc1` [Example 376] belongs 6900 nM; to `CNc1cccc(Nc2nc(-c3ccc(Cl)cc3)ccc2C(N)=O)c1` [Example 380], 3200 nM. On the same count and under the same terms, to `CN(c1cccc(Nc2nc(-c3ccc(Cl)cc3)ccc2C(N)=O)c1)S(=O)(=O)c1ccccc1` [Example 381] belongs 1000 nM. Turning to `NC(=O)c1cc(F)c(N2CCC[C@@H](NC(=O)Nc3nccs3)C2)nc1Nc1ccc(C(=O)N2CCOCC2)cc1` [Example 382], the IC50 in test [2] was 800 nM; in test [1] it was 2 nM. Regarding `CN1CCN(c2ccc(Nc3nc(N4CCC[C@@H](NC(=O)Nc5nccs5)C4)c(F)cc3C(N)=O)cc2)CC1` [Example 385], the results for the concentration for half-maximal inhibition (IC50) in test [2] and in test [1] were 20 nM and 3 nM, respectively. Regarding `CC(=O)N[C@@H]1CCCN(c2nc(Nc3ccc(N4CCN(C)CC4)cc3)c(C(N)=O)cc2F)C1` [Example 386], the half-inhibitory concentration (IC50) in test [2] came to 110 nM; in test [1] it was 10 nM. For the compound `CN1CCN(c2ccc(Nc3nc(N4CCC[C@@H](NC(=O)c5ccccc5)C4)c(F)cc3C(N)=O)cc2)CC1` [Example 388], the IC50 is 70 nM in test [2] and 4 nM in test [1]. On the same counts, the results for `CN1CCN(c2ccc(Nc3nc(N4CCCCC4)c(F)cc3C(N)=O)cc2)CC1` [Example 393] are 120 nM and 20 nM. For `CNC(=O)c1ccc(N2CCC[C@@H](NC(=O)c3ccc(C(C)(C)C)cc3)C2)nc1Nc1ccc(C(=O)N2CCOCC2)cc1` [Example 442], in test [1], the IC50 is 2600 nM. In the case of `CN1CCC(C)(c2ccc(Nc3nc(N4CCC[C@@H](NC(=O)Nc5nnc(C(C)(C)C)s5)C4)c(F)cc3C(N)=O)cc2)CC1` [Example 494], the concentration for half-maximal inhibition (IC50) in test [1] was 0.6 nM. Regarding `COc1cc(Nc2nc(N3CCC[C@@H](NC(=O)c4ccccc4)C3)c(F)cc2C(N)=O)ccc1OCCNC1CC1` [Example 511], in test [1], the IC50 was 730 nM. For `CN(C(=O)Nc1ccccc1)c1cccc(Nc2nc(N3CCOCC3)c(F)cc2C(N)=O)c1` [Example 529], the IC50 in test [1] stood at 1000 nM.

Regarding `NC(=O)c1cc(F)c(N2CCOCC2)nc1Nc1cccc(CS(=O)(=O)N2CCCC2)c1` [Example 533], the IC50 in test [1] came to 22000 nM.

With `NC(=O)c1cc(F)c(N2CCOCC2)nc1Nc1cccc(N(S(=O)(=O)CCCCl)S(=O)(=O)CCCCl)c1` [Example 535], the IC50 in test [1] was 980 nM.

Take `CN(c1cccc(Nc2nc(N3CCOCC3)c(F)cc2C(N)=O)c1)S(=O)(=O)c1ccc(-c2ccccc2)cc1` [Example 537]: in test [1], the IC50 stood at 1100 nM. With `CN(c1cccc(Nc2nc(N3CCOCC3)c(F)cc2C(N)=O)c1)S(=O)(=O)c1cccc2ccccc12` [Example 538], the IC50 in test [1] was 1200 nM.
